{"source": "patent US5854067A", "about": "“Hexokinase inhibitors” (priority 1996, dated 1998)", "key": {"[1]": {"tested_on": "Glucokinase (GK, hexokinase IV)", "settings": "Table 1, GK, cited from earlier work"}, "[2]": {"tested_on": "Hexokinases I, II, and III (HK I-III, low Km hexokinases)", "settings": "Table 1, HK I-III, cited from earlier work"}, "[3]": {"target": "T1, native (wild type) islet glucokinase (Rattus norvegicus, UniProt P17712)", "T1 construct": "Plasmids containing DNA encoding either intact islet glucokinase; expressed in transfected cells; host or cells: 293 human embryonic kidney cells, transient transfection, crude extract", "T1 sequence (P17712 1-465)": "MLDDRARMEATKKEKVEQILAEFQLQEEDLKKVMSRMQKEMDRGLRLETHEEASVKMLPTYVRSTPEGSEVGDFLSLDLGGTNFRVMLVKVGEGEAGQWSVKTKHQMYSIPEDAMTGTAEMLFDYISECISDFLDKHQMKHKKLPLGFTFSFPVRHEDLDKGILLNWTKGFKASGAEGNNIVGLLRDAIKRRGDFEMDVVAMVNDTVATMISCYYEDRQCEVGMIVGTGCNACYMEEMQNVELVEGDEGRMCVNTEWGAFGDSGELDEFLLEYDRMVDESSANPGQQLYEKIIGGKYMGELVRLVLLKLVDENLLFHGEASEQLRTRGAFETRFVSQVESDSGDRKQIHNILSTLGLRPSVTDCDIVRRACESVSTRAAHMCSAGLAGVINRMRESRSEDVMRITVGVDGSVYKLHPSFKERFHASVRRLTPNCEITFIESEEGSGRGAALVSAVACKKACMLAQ", "test": "Radioisotopic glucose phosphorylating activity assay in extracts of transiently transfected 293 cells, with and without G6P", "type": "biochemical", "settings": "10 mM unlabeled G6P, 3 and 20 mM glucose, 293 cell extracts", "description": "Plasmids containing DNA encoding either intact islet glucokinase, hexokinase I or one of the two hexokinase/glucokinase chimeras were introduced into the human embryonic kidney cell line 293, using Ca2 PO4 co-precipitation. After incubation with the plasmid DNA, cells were cultured for an additional 48 hours.\nAssays were performed at 3 and 20 mM glucose. At the lower glucose concentration, hexokinase activity is maximal while glucokinase activity is very low. […] The assay was also performed in the presence and absence of 10 mM unlabeled glucose-6-phosphate (G6P)."}}, "note": "Where two headings read alike, the source gives them in different places.", "data": [{"smiles": "Nc1ncnc2c1ncn2[C@@H]1O[C@H](COP(=O)(O)OP(=O)(O)OP(=O)(O)O)[C@@H](O)[C@H]1O", "note": "[ATP]", "values": [{"measurement": "Km", "setting": "[1]; read-out: Km ATP", "value": 500, "unit": "µM"}, {"measurement": "Km", "setting": "[2]; read-out: Km ATP", "value": "200 to 500", "unit": "µM"}]}, {"smiles": "O=P(O)(O)OC[C@H]1OC(O)[C@H](O)[C@@H](O)[C@@H]1O", "note": "(some centres unmarked) [G-6-P, glucose-6-phosphate]", "values": [{"measurement": "effect of glucose-6-phosphate on glucose phosphorylating activity", "setting": "[3]", "value": "no significant effect"}]}, {"smiles": "OC[C@H]1OC(O)[C@H](O)[C@@H](O)[C@@H]1O", "note": "(some centres unmarked) [glucose]", "values": [{"measurement": "Km", "setting": "[1]; read-out: Km glucose", "value": "5000 to 12000", "unit": "µM"}, {"measurement": "Km", "setting": "[2]; read-out: Km glucose", "value": "20 to 130", "unit": "µM"}]}]}
